The numbers were not newly measured in patent US6387904B2, “Method of treating glaucoma and ischemic retinopathy” (Pfizer INC, priority 1998, dated 2002), which cites them from elsewhere.

SMILES strings stand for the structures. Counter-ions that a name gives are not always drawn.

One data set deals with T1, 5-HT1A (Homo sapiens, UniProt P08908).
T1 construct: host or cells: central nervous system tissue
T1 sequence (P08908 1-422): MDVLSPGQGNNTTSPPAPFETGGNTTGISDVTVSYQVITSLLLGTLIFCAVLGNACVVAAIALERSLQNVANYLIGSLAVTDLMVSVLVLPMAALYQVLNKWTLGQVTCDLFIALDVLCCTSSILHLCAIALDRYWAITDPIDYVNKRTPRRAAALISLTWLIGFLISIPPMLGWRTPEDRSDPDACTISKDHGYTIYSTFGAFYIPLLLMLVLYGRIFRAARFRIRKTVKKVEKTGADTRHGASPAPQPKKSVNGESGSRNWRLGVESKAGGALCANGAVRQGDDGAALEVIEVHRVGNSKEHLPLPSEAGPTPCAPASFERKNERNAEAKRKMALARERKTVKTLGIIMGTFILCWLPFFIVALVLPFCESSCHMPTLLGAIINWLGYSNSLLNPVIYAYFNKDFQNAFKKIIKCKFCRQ
Conditions: ligand [3H]-80H-DPAT; central nervous system tissue; mean ± spread (n).

For the next data set, the target named is Norpinephrine reuptake (Homo sapiens, UniProt P23975). The note with it: neurotransmitter uptake inhibition; mean ± spread (n).
Norpinephrine reuptake, sequence (P23975 whole entry): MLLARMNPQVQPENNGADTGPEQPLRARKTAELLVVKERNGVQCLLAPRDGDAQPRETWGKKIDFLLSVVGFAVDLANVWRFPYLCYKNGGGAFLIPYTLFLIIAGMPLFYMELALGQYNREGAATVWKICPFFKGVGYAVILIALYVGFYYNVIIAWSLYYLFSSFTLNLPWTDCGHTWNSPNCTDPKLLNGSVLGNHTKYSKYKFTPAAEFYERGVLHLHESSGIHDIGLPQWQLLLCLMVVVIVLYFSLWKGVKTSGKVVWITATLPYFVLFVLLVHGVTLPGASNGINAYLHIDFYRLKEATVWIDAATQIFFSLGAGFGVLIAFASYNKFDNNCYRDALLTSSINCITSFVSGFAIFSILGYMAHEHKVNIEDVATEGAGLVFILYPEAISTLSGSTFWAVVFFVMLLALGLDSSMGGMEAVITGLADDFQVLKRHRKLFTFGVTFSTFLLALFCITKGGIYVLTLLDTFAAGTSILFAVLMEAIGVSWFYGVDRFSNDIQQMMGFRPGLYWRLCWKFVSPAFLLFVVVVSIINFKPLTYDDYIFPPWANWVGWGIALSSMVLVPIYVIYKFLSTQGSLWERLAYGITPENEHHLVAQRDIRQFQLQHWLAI
The target in the next data set is T2, DA reuptake (Homo sapiens, UniProt Q01959).
T2 construct: host or cells: central nervous system tissue
T2 sequence (Q01959 whole entry): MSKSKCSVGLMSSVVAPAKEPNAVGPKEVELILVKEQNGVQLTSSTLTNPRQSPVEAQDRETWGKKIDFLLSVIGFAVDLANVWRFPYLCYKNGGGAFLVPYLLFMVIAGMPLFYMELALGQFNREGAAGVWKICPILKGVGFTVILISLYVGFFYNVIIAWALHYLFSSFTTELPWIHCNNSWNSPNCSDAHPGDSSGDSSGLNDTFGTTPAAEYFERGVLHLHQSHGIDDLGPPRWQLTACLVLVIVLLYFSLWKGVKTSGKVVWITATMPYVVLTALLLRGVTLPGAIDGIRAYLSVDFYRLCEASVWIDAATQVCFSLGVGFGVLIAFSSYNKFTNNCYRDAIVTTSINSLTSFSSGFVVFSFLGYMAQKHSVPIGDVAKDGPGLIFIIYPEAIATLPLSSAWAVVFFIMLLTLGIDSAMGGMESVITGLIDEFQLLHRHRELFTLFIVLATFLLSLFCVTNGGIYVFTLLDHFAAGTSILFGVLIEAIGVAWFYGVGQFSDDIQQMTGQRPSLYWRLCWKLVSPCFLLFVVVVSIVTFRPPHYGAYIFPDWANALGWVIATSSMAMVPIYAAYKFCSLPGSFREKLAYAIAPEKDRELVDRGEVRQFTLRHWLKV
The note with it: neurotransmitter uptake inhibition; mean ± spread (n).

Turning to `O=C1Cc2cc(CCN3CCN(c4nsc5ccccc45)CC3)c(Cl)cc2N1` [ziprasidone, 5-(2-(4-(1,2-benzisothiazol-3-yl)piperazinyl)ethyl)-6-chlorooxindole hydrochloride], the “pKi 5-HT1A” value on 5-HT1A is reported as 8.47 ± 0.05 (4). Moreover, on Norpinephrine reuptake, the “pKi Neurotransmiter Reuptake Blockade: Norpinephrine” value is recorded as 7.30 ± 0.01 (4). The “pKi Neurotransmiter Reuptake Blockade: DA” value at DA reuptake is listed as 6.58 ± 0.02 (3).
